Reference: patent US7786257B2, “Signal-1/signal-2 bifunctional peptide inhibitors” (priority 2000, dated 2010)

Columns and labels:
[1] = test system: live APC (spleenocytes) from NOD (I-A^g7), BALB/c, A.SW, A.BY mice; experiment: Flow cytometry of biotinylated peptide binding to live APC (spleenocytes) of inbred mouse strains; details: biotinylated peptide, live spleenocytes, flow cytometry
Description: Specifically, it was verified that the peptide binds to MHC molecules on live APC. Briefly, spleen cell density-gradient fractions (from mice), or PBL, or APC lines (from humans) were incubated in round bottom 96-well plates with increasing concentrations of individual biotinylated peptides at 37° C., 5% CO2 for 16 hours. Following binding of the BPI to the APC, Avidin-FITC was incubated with the cells on ice for 30 minutes, followed by biotinylated anti-Avidin for 1 hour, then again with Avidin-FITC. For BPI titrations, increasing concentrations (0.1-100 μM) of the biotinylated derivatives in sterile 0.5% BSA-PBS were incubated with the APC for 16 hours as above. […] Three-color analyses used Cy-Chrome or PE-conjugated antibodies to known surface markers of APC that were commercially available. Avidin-FITC and biotinylated anti-Avidin detection of the bound peptide was as previously described in Murray et al., 24 Eur. J. Immunol. 2337-2344 (1994); Murray; 19 Immunology Today 157-163; and Schountz et al., 157 The Journal of Immunology 3893-3901 (1996). Slight modifications of this method were used to test peptide inhibition (i.e., peptide affinity) and co-capping to the MHC and ICAM molecules directly on the live APC surface. […] Unlabeled peptide was used in a competition assay to derive the relative affinity of the BPI for the APC and the ability of the BPI to crosslink the MHC and ICAM molecules on the APC was examined by cocapping ICAM with an anti-MHC mAb. Here, cells were incubated with the BPI. Next, an anti-MHC mAb was added. After 30 minutes at 37° C., the cells were transferred to ice and stained with PE-labeled anti-ICAM (FIG. 7).
To obtain biotinylated BPI, the synthesized EGAD BPI was biotinylated with NHS-Biotin as described in Murray et al., 24 Eur. J. Immunol. 2337-2344 (1994). Spleen cell density-gradient fractions from normal (unimmunized) NOD, BALB/c and other MHC congenic strains were incubated in round bottom 96-well plates with increasing concentrations of individual biotinylated peptides at 37° C., 5% CO2 for 16 hours. Following binding of the BPI to the APC, Avidin-FITC was incubated with the cells on ice for 30 minutes, followed bybiotinylated anti-Avidin for 1 hour, then again with Avidin-FITC. For BPI titrations, increasing concentrations (0.1-100 μM) of the biotinylated derivatives in sterile 0.5% BSA-PBS were incubated with the APC for 16 hours as above. Three-color analyses used Cy-Chrome or PE-conjugated anti-B220 (mAb RA3-6B2 (CD45R B-cell marker), anti-MHC class II (KH74 or 10-3.62 mAb), or anti-ICAM-1 (3E2 mAb); (all purchased from PharMingen, San Diego, Calif.). Bound peptide was detected with avidin-FITC/biotinylated anti-avidin/avidin-FITC on live cells gated by forward/side scatter analysis. Controls contained all detecting reagents in absence of the biotinylated peptide; 20,000 events were analyzed for each histogram with a FACScan (Becton-Dickinson) flow cytometer.
To verify antigenic peptide binding to live APC, initial EGAD-BPI were screened for selective binding to NOD (I-A^g7) APC and assayed for simultaneous binding using monoclonal antibodies against either MHC-II or ICAM-1 by flow cytometry methods using live APC (Murray et al., 24 Eur. J. Immunol. 2337-2344 (1994); Murray; 19 Immunology Today 157-163; and Schountz et al., 157 The Journal of Immunology 3893-3901 (1996)). In this assay, increasing concentrations of the biotinylated-BPI, -CD11a(237-247) or -GAD65(208-217) peptide were incubated overnight with spleenocytes from each inbred strain. Bound peptide was detected with amplification of avidin-FITC fluorescence by the use of a biotinylated anti-avidin reagent, followed by a second round of avidin-FITC binding. Biotinylated peptide was incubated with 10^6 viable cells at a peptide concentrations of 50 μM. Bound peptide was detected with avidin-FITC/biotinylated anti-avidin-FITC. […]

[2] = test system: NOD mice; experiment: Lymphocytic infiltration of pancreatic islets (insulitis) in NOD mice, histological scoring; type: in vivo, mouse; details: NOD males; for intact / normal islets without infiltration (grade-0 islets), percentage of islets examined: GAD65 peptide in CFA, two i.v. injections of 40 nanomoles
Excerpt: To evaluate the disease process by immunohistology (see, e.g., FIG. 12A-D), spleen, pancreas, or other target organs, e.g., the CNS for the MDP peptide BPI, or lung for the RSV peptide BPI, were removed from euthanized mice of each group and prepared for histology by fixing in neutral buffered formalin and embedding in paraffin, or snap frozen in O.C.T. medium. For scoring inflammation, minimums of five sections from each mouse were used to assess the blocking affect of a given BPI. For characterization of standard T-cell markers on cellular infiltrates, biotinylated mAb to various cell surface antigens will be incubated individually with the Cryostat sections (2 hours), followed by avidin-alkaline phosphatase (Vector laboratories). Alternatively, cell subsets will be phenotyped by standard flow cytometry methods as described in Murray et al., 24 Eur. J. Immunol. 2337-2344 (1994); Murray; 19 Immunology Today 157-163; and Schountz et al., 157 The Journal of Immunology 3893-3901 (1996). Finally, the students t-test or ANOVA will be used to estimate the statistical significance of differences observed between groups and individual mice.
These studies sought to confirm that the BPI containing the immunodominant GAD65 TCR epitope (EGAD-BPI) was biologically active in vivo and inhibited the development of pancreatic inflammation. Groups of three normal glycemic NOD males (8 weeks old) were immunized with the GAD65 (208-217) peptide in CFA as described in Example 4. The control group received PBS, and separate experimental groups received either the EGAD-BPI, the GAD peptide alone (i.e., the T-cell receptor epitope), or the CD11a peptide alone(i.e., the second signal receptor moiety) by two intravenous injections as described in Example 4. On day 10, the pancreata were removed to 10% PBS-buffered formalin, embedded in paraffin, and five-micron serial sections were examined histologically for mononuclear cell infiltration as previously described by Yoon, et al., Control of Autoimmune Diabetes in NOD Mice by GAD Expression or Suppression in β Cells, 284 Science 1183-1187 (1999), the entirety of which is hereby incorporated by reference.

Sequence | preferential binding to NOD APC compared with other strains (BALB/c, A.SW, A.BY) [1] | preferential binding to NOD APC compared with other strains (BALB/c, A.SW, A.BY) ([1]; listed as GAD 65 moiety) | intact / normal islets without infiltration (grade-0 islets), percentage of islets examined ([2]; day 10) | mononuclear cell infiltration of islets (insulitis), in words ([2]; day 10, histology) | islets scored grade 2 or above ([2]; two i.v. injections, day 10) | preferential binding to NOD APC compared with other strains (BALB/c, A.SW, A.BY) ([1]; listed as LFA-1 (CD11a 237-247) peptide) | preferential binding to NOD APC compared with other strains (BALB/c, A.SW, A.BY) ([1]; listed as LFA-1 moiety)
EIAPVFVLLE (listed as Homo sapiens) [GAD65 peptide, reference compound] | did not bind preferentially to NOD APC | did not display this increased binding | 62% | showed the most insulitis | 37.5% |  | 
ITDGEATDSG (listed as Homo sapiens) [CD11a peptide, Signal-2 moiety (second signal receptor moiety) of EGAD-BPI, tested alone as control] | did not bind preferentially to NOD APC |  | 66.7% |  |  | bound similarly to all strain spleenocytes | did not display this increased binding
